In article PMC6394990, “Detailed characterization of the solution kinetics and thermodynamics of biotin, biocytin and HABA binding to avidin and streptavidin” (PLoS ONE, 2019):
Where “and” joins values, the source holds several entries; their conditions need not be identical. Equal values may be shown once. Read-outs that look alike come from different tables or passages of the source.

Molecular target: T1, avidin (AV) (Gallus gallus, UniProt P02701)
T1 construct: purchased Calbiochem (La Jolla, CA)
T1 sequence (P02701 25-152): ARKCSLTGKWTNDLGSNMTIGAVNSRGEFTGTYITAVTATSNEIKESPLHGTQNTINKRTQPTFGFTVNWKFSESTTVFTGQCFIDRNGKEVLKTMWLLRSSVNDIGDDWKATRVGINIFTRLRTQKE
Experiment: Stopped-flow association kinetics of dye-labeled biotin probes binding to avidin (F(t), rF(t); Arrhenius plots/global fitting)
Parameters: ln(k) / dS+ / dG+ / Eon for BFl / b of the line y = m1x+b1: unit not given here
Details: for k(average): k (full value); for ΔG^ǂ / ΔS^ǂ: forward; for kcal/mol (from Arrhenius slope): the values are: Ea forward; for Temperature at which the rate constants of AV and SAV reacting with BcO are the same, x: crossing of the AV and SAV lines; for half-time of association, rF¯(t) / halftime of association, rF¯(t): probe 20 nM; for half-time of association, rF¯(t): AV 260 nM
Protocol: These reactions were carried out in a buffered solution of 10 mM Tris-HCl, 100 mM KCl, 2.5 mM MgCl2 and 1 mM CaCl2 at pH 8 and only AV-BcO reactions included pH 9 and 10. The concentrations, after mixing, were of 20 nM of dye-labeled B7 probe and 260 nM, 520 nM or 1040 nM of AV; and 200 nM, 300 nM, 400 nM or 800 nM of SAV at temperatures of 10, 15, 20 and 25°C. The deglycosylation of AV (for comparative association reactions) was carried out using the provided standard protocol with endoglycosidase H [47], both with and without incubation of a denaturant solution (2% SDS and 1M 2-mercaptoethanol).
The reactions were collected with the SF instrument, described previously. The fluorescence signal was collected through a 520 nm interference filter (Oriel Corp., Stratford, CT) with a detector time constant and SF dead time of 1 μs and 1 ms, respectively. The excitation light was provided by the Coherent Ar^+ ion laser (described above) at 488 nm with […] of incident power on the reaction cuvette. The laser source was followed by the photo-elastic modulator described above with the axis oriented 45^o with respect to the electric vector of the incident light and with the half-wave modulation (50 kHz) set for 488 nm excitation. The demodulation circuitry following the photomultiplier provided a DC(t) and a rectified AC(t) which were converted to digital data by a high-speed digitizer (PCI-5122) from National Instruments (Austin, TX) with 14-bit resolution and 100 MHz bandwidth, through channels 0 and 1. The data acquisition was controlled by LabVIEW (Vr 8) software at a collection rate of 6120 data points/second and stored in spreadsheets. The AC(t) and DC(t) data were baseline corrected before obtaining the signal ratio (Eq 4) as a function of time (ρt).
The constant AGain is the instrumental amplitude gain and was evaluated by solving ρ(t) using the known steady state anisotropy (rss) of the complexes which is equivalent to the r(t) at t = ∞; and H, obtained from the equivalent grating factor (G) for the filters and photo multiplier tubes in the SF. For the probes used in here G was 0.82 and H = (1-G)/(1+G) = 0.099. Knowing Again and H, the AC(t) and DC(t) signals can be solved for r(t) and F(t) (Eqs 4 and 5) and the normalized fluorescence, F¯(t) , and corrected fluorescence anisotropy, rF¯(t), were obtained when F¯(0) and rF¯(0) were scaled to 1 at t = 0.
The F¯(t) (Eq 6) is equivalent to (I||) + 2 (I⊥) and proportional to quantum yield (QYi), molar absorptivity (εi) and to the formation or disappearance of the emitting species Xi(t); and rF¯(t) including the steady state anisotropies (rss) of each fluorescent species (Eq 7).
The possible reaction models were discriminated by the squared residuals of the observed and calculated association traces of both fluorescence and anisotropy fluorescence signals, F¯(t) and rF¯(t) , respectively.

NC(CCCCNC(=O)CCCC[C@@H]1SC[C@@H]2NC(=O)N[C@@H]21)C(=O)NCCCCCNC(=O)c1ccc(-c2c3cc(F)c(=O)cc-3oc3cc(O)c(F)cc23)c(C(=O)O)c1 (stereo partly drawn) [BcO, Oregon green 488 Biocytin]
kon (AV, pH 9, 15 (288.15 K), k (scaled)): 3.4e+06 M⁻¹ s⁻¹ | ln(k) (AV, pH 9, 20 (293.15 K)): 15.5 | k(average) (AV, pH 9, 20 (293.15 K)): 5.37E+06 | kon (AV, pH 9, 20 (293.15 K), k (scaled)): 5.4e+06 M⁻¹ s⁻¹ | ln(k) (AV, pH 9, 25 (298.15 K)): 15.9 | k(average) (AV, pH 9, 25 (298.15 K)): 7.85E+06 | kon (AV, pH 9, 25 (298.15 K), k (scaled)): 7.9e+06 M⁻¹ s⁻¹ | ΔG^ǂ (AV, pH 9): 19.7 ± 0.42 kJ/mol | ΔS^ǂ (AV, pH 9): 30.9 ± 2.5 cal/°K·mol | Ea^Forward (AV, pH 10): 62.3 ± 2.9 kJ/mol | ln(k) (AV, pH10, 10 (283.15 K)): 14.5 | k(average) (AV, pH10, 10 (283.15 K)): 1.93E+06 | kon (AV, pH10, 10 (283.15 K), k (scaled)): 1.9e+06 M⁻¹ s⁻¹ | ln(k) (AV, pH10, 15 (288.15 K)): 14.9 | k(average) (AV, pH10, 15 (288.15 K)): 2.97E+06 | kon (AV, pH10, 15 (288.15 K), k (scaled)): 3e+06 M⁻¹ s⁻¹ | ln(k) (AV, pH10, 20 (293.15 K)): 15.4 | k(average) (AV, pH10, 20 (293.15 K)): 4.75E+06 | kon (AV, pH10, 20 (293.15 K), k (scaled)): 4.7e+06 M⁻¹ s⁻¹ | ln(k) (AV, pH10, 25 (298.15 K)): 15.8 | k(average) (AV, pH10, 25 (298.15 K)): 7.23E+06 | kon (AV, pH10, 25 (298.15 K), k (scaled)): 7.2e+06 M⁻¹ s⁻¹ | ΔG^ǂ (AV, pH 10): 19.7 ± 1.3 kJ/mol | ΔS^ǂ (AV, pH 10): 34.1 ± 1.3 cal/°K·mol | slope (Arrhenius linear fit) (AV, ph8): -7283 | slope (Arrhenius linear fit) (AV, ph9): -6979.6 | kcal/mol (from Arrhenius slope) (AV, ph9): 13.9 kcal/mol | slope (Arrhenius linear fit) (AV, ph10): -7486 | kcal/mol (from Arrhenius slope) (AV, ph10): 14.9 kcal/mol | Temperature at which the rate constants of AV and SAV reacting with BcO are the same, x: 52.1 °C | Temperature at which the rate constants of AV and SAV reacting with BcO are the same, x (x=(b1-b2)/(m2-m1) inverted): 325.2 °K | kon (pH 8, AV 260 nM, 10°C, pH 8, read-out: kon AV-BcO F¯(t)): 2.4e+06 ± 100000 M⁻¹ s⁻¹ | kon (pH 8, AV 260 nM, 10°C, pH 8, read-out: kon AV-BcO r¯F(t)): 2.7e+06 ± 100000 M⁻¹ s⁻¹ | kon (pH 8, AV 260 nM, 15°C, pH 8, read-out: kon AV-BcO F¯(t)): 4.1e+06 ± 100000 M⁻¹ s⁻¹ | kon (pH 8, AV 260 nM, 15°C, pH 8, read-out: kon AV-BcO r¯F(t)): 4e+06 ± 100000 M⁻¹ s⁻¹ | kon (pH 8, AV 260 nM, 20°C, pH 8, read-out: kon AV-BcO F¯(t)): 5.7e+06 ± 100000 M⁻¹ s⁻¹ | kon (pH 8, AV 260 nM, 20°C, pH 8, read-out: kon AV-BcO r¯F(t)): 5.9e+06 ± 100000 M⁻¹ s⁻¹ | kon (pH 8, AV 260 nM, 25°C, pH 8, read-out: kon AV-BcO F¯(t)): 9.5e+06 ± 100000 M⁻¹ s⁻¹ | kon (pH 8, AV 260 nM, 25°C, pH 8, read-out: kon AV-BcO r¯F(t)): 9.5e+06 ± 100000 M⁻¹ s⁻¹ | kon (pH 8, AV 520 nM, 10°C, pH 8, read-out: kon AV-BcO F¯(t)): 2.6e+06 ± 200000 M⁻¹ s⁻¹ | kon (pH 8, AV 520 nM, 10°C, pH 8, read-out: kon AV-BcO r¯F(t)): 2.7e+06 ± 100000 M⁻¹ s⁻¹ | kon (pH 8, AV 520 nM, 15°C, pH 8, read-out: kon AV-BcO F¯(t)): 4e+06 ± 100000 M⁻¹ s⁻¹ | kon (pH 8, AV 520 nM, 15°C, pH 8, read-out: kon AV-BcO r¯F(t)): 3.8e+06 ± 100000 M⁻¹ s⁻¹ | kon (pH 8, AV 520 nM, 20°C, pH 8, read-out: kon AV-BcO F¯(t)): 5.9e+06 ± 300000 M⁻¹ s⁻¹ | kon (pH 8, AV 520 nM, 20°C, pH 8, read-out: kon AV-BcO r¯F(t)): 5.8e+06 ± 100000 M⁻¹ s⁻¹ | kon (pH 8, AV 520 nM, 25°C, pH 8, read-out: kon AV-BcO F¯(t)): 9.5e+06 ± 300000 M⁻¹ s⁻¹ | kon (pH 8, AV 520 nM, 25°C, pH 8, read-out: kon AV-BcO r¯F(t)): 9.5e+06 ± 100000 M⁻¹ s⁻¹ | kon (pH 8, AV 1040 nM, 10°C, pH 8, read-out: kon AV-BcO F¯(t)): 2.5e+06 ± 200000 M⁻¹ s⁻¹ | kon (pH 8, AV 1040 nM, 10°C, pH 8, read-out: kon AV-BcO r¯F(t)): 2.7e+06 ± 100000 M⁻¹ s⁻¹ | kon (pH 8, AV 1040 nM, 15°C, pH 8, read-out: kon AV-BcO F¯(t)): 3.9e+06 ± 200000 M⁻¹ s⁻¹ | kon (pH 8, AV 1040 nM, 15°C, pH 8, read-out: kon AV-BcO r¯F(t)): 4e+06 ± 200000 M⁻¹ s⁻¹ | kon (pH 8, AV 1040 nM, 20°C, pH 8, read-out: kon AV-BcO F¯(t)): 6e+06 ± 100000 M⁻¹ s⁻¹ | kon (pH 8, AV 1040 nM, 20°C, pH 8, read-out: kon AV-BcO r¯F(t)): 6.1e+06 ± 100000 M⁻¹ s⁻¹ | kon (pH 8, AV 1040 nM, 25°C, pH 8, read-out: kon AV-BcO F¯(t)): 9.7e+06 ± 300000 M⁻¹ s⁻¹ | kon (pH 8, AV 1040 nM, 25°C, pH 8, read-out: kon AV-BcO r¯F(t)): 9.4e+06 ± 200000 M⁻¹ s⁻¹ | kon (pH 8, AV, Arrhenius plot, 23°C and pH 8, read-out: kon): 7.8e+06 ± 4e+11 M⁻¹ s⁻¹ | kon (pH 8, AV, pH 8, 10°C, read-out: kon): 2.6e+06 ± 300000 M⁻¹ s⁻¹ | kon (pH 8, AV, pH 8, 15°C, read-out: kon): 3.9e+06 ± 300000 M⁻¹ s⁻¹ | kon (pH 8, AV, pH 8, 20°C, read-out: kon): 5.9e+06 ± 400000 M⁻¹ s⁻¹ | kon (pH 8, AV, pH 8, 25°C, read-out: kon): 9.5e+06 ± 400000 M⁻¹ s⁻¹ | kon (pH 9, AV, pH 9, 10°C, read-out: kon): 2.3e+06 ± 100000 M⁻¹ s⁻¹ | kon (pH 9, AV, pH 9, 15°C, read-out: kon): 3.4e+06 ± 100000 M⁻¹ s⁻¹ | kon (pH 9, AV, pH 9, 20°C, read-out: kon): 5.4e+06 ± 200000 M⁻¹ s⁻¹ | kon (pH 9, AV, pH 9, 25°C, calculated from an Arrhenius plot, read-out: kon): 7.9e+06 ± 300000 M⁻¹ s⁻¹ | kon (pH 10, AV, pH 10, 10°C, read-out: kon): 1.9e+06 ± 100000 M⁻¹ s⁻¹ | kon (pH 10, AV, pH 10, 15°C, read-out: kon): 3e+06 ± 100000 M⁻¹ s⁻¹ | kon (pH 10, AV, pH 10, 20°C, read-out: kon): 4.8e+06 ± 200000 M⁻¹ s⁻¹ | kon (pH 10, AV, pH 10, 25°C, calculated from an Arrhenius plot, read-out: kon): 7.2e+06 ± 300000 M⁻¹ s⁻¹ | half-time of association, rF¯(t) (pH 8, 10°C): 1024 ms | half-time of association, rF¯(t) (pH 8, 15°C): 695 ms | half-time of association, rF¯(t) (pH 8, 20°C): 452 ms and 455 ms | half-time of association, rF¯(t) (pH 8, 25°C): 280 ms | halftime of association, rF¯(t) (AV 520 nM, pH 8, 20°C): 229 ms | halftime of association, rF¯(t) (AV 1040 nM, pH 8, 20°C): 109 ms | kon (untreated AV, 15°C, read-out: kon): 3.9e+06 M⁻¹ s⁻¹
